Assay results published in patent publication EP0326329B1, “Quinazoline derivatives useful as insecticides” (Dow AgroSciences LLC, priority 1988, dated 1989).
Like-named read-outs stand apart in the source and are kept apart here.

What was measured:
Format in all cases: in vivo
[1] = test system: Erysiphe graminis tritici (powdery mildew); experiment: Greenhouse Test 1, foliar spray fungicide screen (POWD MDEW), host wheat; settings: disease control rating, 400 ppm (+++ at 100 ppm)
[2] = test system: Pyricularia oryzae (rice blast); settings: disease control rating, foliar spray, host rice; 400 ppm (+++ at 100 ppm)
[3] = test system: Puccinia recondita tritici (leaf rust); experiment: Greenhouse Test 1, foliar spray fungicide screen (LEAF RUST), host wheat; settings: disease control rating, 400 ppm (+++ at 100 ppm)
[4] = test system: Pseudoperonospora cubensis (downy mildew); experiment: Greenhouse Test 1, foliar spray fungicide screen (DOWN MDEW), host squash; settings: disease control rating, 400 ppm (+++ at 100 ppm)
[5] = test system: Cercospora beticola (leaf spot); experiment: Greenhouse Test 1, foliar spray fungicide screen (LEAF SPOT), host sugar beet; settings: disease control rating, 400 ppm (+++ at 100 ppm)
[6] = test system: Venturia inaequalis (apple scab); experiment: Greenhouse Test 1, foliar spray fungicide screen (APPL SCAB), host apple seedling; settings: disease control rating, 400 ppm (+++ at 100 ppm)
[7] = test system: Septoria tritici (leaf blotch); experiment: Greenhouse Test 1, foliar spray fungicide screen (LEAF BLOT), host wheat; settings: disease control rating, 400 ppm (+++ at 100 ppm)
[8] = test system: Southern corn rootworm (Diabrotica undecimpuctata howardi Barber); experiment: Mite/insect screen, soil treatment (CRW); settings: percent mortality, soil treatment; for mortality at 12 ppm / mortality at 24 ppm: Diabrotica, read-out: CRW RESULTS %
In short: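 Five 2–3 instar larvae were placed on dry sandy soil with a presoaked corn seed after the soil had received 1 mL of compound solution and dried 6–12 h; cups were kept capped at 23°C. Mortality (%) and phytotoxicity were read after standard exposure. Formulation: acetone/alcohol with emulsifiers, water-diluted.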

[9] = test system: southern armyworm (Spodopetra eridania Cramer); experiment: Mite/insect screen, sprayed squash leaves (SAW); settings: percent mortality; for mortality at 200 ppm / mortality at 400 ppm: Spodoptera eridania, read-out: SAW RESULTS %
In short: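 Water-diluted formulations of each compound (acetone/alcohol 50:50 with 23 g/L and 13 g/L emulsifier blends) are sprayed over both leaf faces to runoff. After a standard exposure period, percent kill and phytotoxicity are recorded.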

[10] = test system: Twospotted spider mites (Tetranychus urticae Koch); experiment: Mite/insect screen, sprayed squash cotyledons (SM); settings: percent mortality; for mortality at 200 ppm / mortality at 400 ppm: Tetranychus urticae, read-out: SM RESULTS %
In short: (§1)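 Compounds dissolved in acetone/alcohol with TOXIMUL R/S emulsifiers, diluted with water to test concentrations, and sprayed to runoff on both leaf surfaces at 10 psi, then dried 1 h. Excised treated squash leaves given southern armyworm larvae; aphid and spider mite tests on sprayed squash cotyledons. Percent mortality and phytotoxicity scored after standard exposure.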

[11] = test system: melon aphids (Aphis gossypii Glover); experiment: Mite/insect screen, sprayed squash cotyledons (MA); settings: percent mortality; for mortality at 200 ppm / mortality at 400 ppm: Aphis gossypii, read-out: MA RESULTS %
In short: as §1

[12] = test system: Botrytis cinerea (gray mold); experiment: Greenhouse Test 1, foliar spray fungicide screen (GRAY MOLD), host grape berries; settings: disease control rating, 400 ppm (+++ at 100 ppm)

## COc1ccccc1CCNc1nc(NCCc2ccccc2OC)c2ccccc2n1 [Example 25, N,N'-bis[2-(2-methoxyphenyl)ethyl]-2,4-quinazolinediamine]
[1]
  POWD MDEW: - (- = 0-19% control at 400 ppm)
[2]
  RICE BLAST: + (+ = 20-89% control at 400 ppm)
[3]
  LEAF RUST: + (+ = 20-89% control at 400 ppm)
[4]
  DOWN MDEW: ++ (++ = 90-100% control at 400 ppm)
[5]
  LEAF SPOT: - (- = 0-19% control at 400 ppm)
[6]
  APPL SCAB: - (- = 0-19% control at 400 ppm)
[7]
  LEAF BLOT: - (- = 0-19% control at 400 ppm)
[8]; CRW rate 12.00 ppm
  mortality at 12 ppm: 0%
[9]; spray rate 200 ppm
  mortality at 200 ppm: 0%
[10]; spray rate 200 ppm
  mortality at 200 ppm: 0%
[11]; spray rate 200 ppm
  mortality at 200 ppm: 0%

## CC(C)(C)c1ccc(CCOc2ncnc3ccc(Br)cc23)cc1 [Example 175, 6-bromo-4-[2-[4-(t-butyl)phenyl]ethoxy]quinazoline]
[1]
  POWD MDEW: - (- = 0-19% control at 400 ppm)
[2]
  RICE BLAST: ++ (++ = 90-100% control at 400 ppm)
[3]
  LEAF RUST: + (+ = 20-89% control at 400 ppm)
[12]
  GRAY MOLD: - (- = 0-19% control at 400 ppm)
[4]
  DOWN MDEW: - (- = 0-19% control at 400 ppm)
[8]; CRW rate 12.00 ppm
  mortality at 12 ppm: 0%
[8]; CRW rate 24.00 ppm
  mortality at 24 ppm: 0%
  CRW RESULTS %: 0%
[9]; spray rate 200 ppm
  mortality at 200 ppm: 100%
[9]; spray rate 400 ppm
  mortality at 400 ppm: 0%
  SAW RESULTS %: 0%
[10]; spray rate 200 ppm
  mortality at 200 ppm: 60%
[10]; spray rate 400 ppm
  mortality at 400 ppm: 0%
  SM RESULTS %: 0%
[11]; spray rate 200 ppm
  mortality at 200 ppm: 80%
[11]; spray rate 400 ppm
  mortality at 400 ppm: 0%
  MA RESULTS %: 0%

## c1ccc(Oc2cccc(CCOc3ncnc4ccccc34)c2)cc1 [Example 68, 4-[2-(3-phenoxyphenyl)ethoxy]quinazoline]
[1]
  POWD MDEW: +++ (+++ = 90-100% control at 100 ppm)
[2]
  RICE BLAST: +++ (+++ = 90-100% control at 100 ppm)
[3]
  LEAF RUST: +++ (+++ = 90-100% control at 100 ppm)
[12]
  GRAY MOLD: - (- = 0-19% control at 400 ppm)
[4]
  DOWN MDEW: +++ (+++ = 90-100% control at 100 ppm)
[8]; CRW rate 24.00 ppm
  mortality at 24 ppm: 0%
[9]; spray rate 400 ppm
  mortality at 400 ppm: 0%
[10]; spray rate 400 ppm
  mortality at 400 ppm: 90%
[11]; spray rate 400 ppm
  mortality at 400 ppm: 100%

## CC(C)c1ccc(CCNc2ncnc3ccc(Br)cc23)cc1 [Example 79, 6-bromo-N-[2-[4-(i-propyl)phenyl]ethyl]-4-quinazolinamine]
[1]
  POWD MDEW: + (+ = 20-89% control at 400 ppm)
[2]
  RICE BLAST: +++ (+++ = 90-100% control at 100 ppm)
[3]
  LEAF RUST: ++ (++ = 90-100% control at 400 ppm)
[12]
  GRAY MOLD: - (- = 0-19% control at 400 ppm)
[4]
  DOWN MDEW: +++ (+++ = 90-100% control at 100 ppm)
[8]; CRW rate 12.00 ppm
  mortality at 12 ppm: 0%
[8]; CRW rate 24.00 ppm
  mortality at 24 ppm: 0%
[9]; spray rate 200 ppm
  mortality at 200 ppm: 0%
[9]; spray rate 400 ppm
  mortality at 400 ppm: 0%
[10]; spray rate 200 ppm
  mortality at 200 ppm: 50%
[10]; spray rate 400 ppm
  mortality at 400 ppm: 0%
[11]; spray rate 200 ppm
  mortality at 200 ppm: 50%
[11]; spray rate 400 ppm
  mortality at 400 ppm: 0%

## CC(C)(C)c1ccc(CCCCOc2ncnc3c(F)cccc23)cc1 [Example 200, 8-fluoro-4-[4-[4-(t-butyl)phenyl]butoxy]quinazoline]
[1]
  POWD MDEW: +++ (+++ = 90-100% control at 100 ppm)
[2]
  RICE BLAST: +++ (+++ = 90-100% control at 100 ppm)
[3]
  LEAF RUST: + (+ = 20-89% control at 400 ppm)
[12]
  GRAY MOLD: - (- = 0-19% control at 400 ppm)
[4]
  DOWN MDEW: +++ (+++ = 90-100% control at 100 ppm)
[8]; corn rootworm, CRW RATE 12.00 PPM
  mortality at 12 ppm: 100%
[8]; corn rootworm, CRW RATE 24.00 PPM
  mortality at 24 ppm: 100%
[9]; Southern armyworm, sprayed squash leaves, RATE 200 PPM
  mortality at 200 ppm: 0%
[9]; Southern armyworm, sprayed squash leaves, RATE 400 PPM
  mortality at 400 ppm: 0%
[10]; twospotted spider mites, sprayed squash cotyledons, RATE 200 PPM
  mortality at 200 ppm: 80%
[10]; twospotted spider mites, sprayed squash cotyledons, RATE 400 PPM
  mortality at 400 ppm: 100%
[11]; melon aphids, sprayed squash cotyledons, RATE 200 PPM
  mortality at 200 ppm: 60%
[11]; melon aphids, sprayed squash cotyledons, RATE 400 PPM
  mortality at 400 ppm: 80%
